Test results reported in ChEMBL document CHEMBL1799910, “Optimization of 1,2,3,4-tetrahydroacridin-9(10H)-ones as antimalarials utilizing structure-activity and structure-property relationships” (J Med Chem, 2011).
In brackets after ≈: the same amount, converted by molar mass.

Experiments:
[1] = tested on: Plasmodium falciparum; experiment: Antimalarial activity against chloroquine and pyrimethamine-resistant Plasmodium falciparum W2 infected in human A positive erythrocytes after 72 hrs by SYBR Green I assay; assay type: functional, organism-based; conditions: W2, 72 h
[2] = Partition coefficient, log D of the compound at pH 7.4 by HPLC analysis; conditions: octanol/water
[3] = Permeability of the compound by PAMPA method at pH 7.4; assay type: ADME; conditions: read-out: permeability
[4] = tested on: J774; experiment: Cytotoxicity against mouse J774 cells after 72 hrs by Cell titer 96 aqueous one solution cell proliferation assay; assay type: cell-based; conditions: J774, 72 h
[5] = tested on: Plasmodium falciparum; experiment: Resistance index, ratio of EC50 for chloroquine, mefloquine, pyrimethamine and atovaquone-resistant Plasmodium falciparum TM90-C2B to EC50 for chloroquine and pyrimethamine-resistant Plasmodium falciparum W2; assay type: functional
[6] = Aqueous solubility of compound at pH 7.4 by HPLC analysis; conditions: buffer
[7] = (§1) Stability in mouse liver microsomes; assay type: ADME, Microsome; conditions: liver microsomes
[8] = tested on: Plasmodium falciparum; experiment: Antimalarial activity against chloroquine, mefloquine, pyrimethamine and atovaquone-resistant Plasmodium falciparum TM90-C2B infected in human A positive erythrocytes after 72 hrs by SYBR Green I assay; assay type: functional, organism-based
[9] = Cytotoxicity index, ratio of EC50 for mouse J774 cells to EC50 for chloroquine, mefloquine, pyrimethamine and atovaquone-resistant Plasmodium falciparum TM90-C2B; assay type: cell-based; conditions: read-out: Ratio EC50
[10] = tested on: Liver; experiment: as §1; assay type: ADME, Microsome; conditions: microsomes
[11] = tested on: Plasmodium falciparum; experiment: Antimalarial activity against Plasmodium falciparum D6 infected in human A positive erythrocytes after 72 hrs by SYBR Green I assay; assay type: functional, organism-based; conditions: D6, 72 h

SMILES | EC50 [1] | logD [2] | Papp [3] | EC50 [4] | Ratio EC50 [5] | solubility [6] | half-life [7] | EC50 [8] | selectivity ratio [9] | Stability [10] | EC50 [11]
COc1ccc2c(=O)c3c([nH]c2c1)CCC(C)(C)C3 | 54.3 nM | 2.2 | 88 ×10⁻⁶ cm/s | > 40000 nM | 3.22 | 61 µM (≈ 15.7 µg/mL) | 77 min | 175 nM | ≥ 100 | – | –
COc1ccc2c(=O)c3c([nH]c2c1)CC(C)(C)CC3 | 355 nM | 2.2 | 64 ×10⁻⁶ cm/s | > 40000 nM | 0.32 | 92 µM (≈ 23.7 µg/mL) | 24.8 min | 112 nM | ≥ 100 | – | –
Cc1cc(Oc2ccc(OC(F)(F)F)cc2)ccc1-c1ccc2[nH]c3c(c(=O)c2c1)CSCC3 | 27.7 nM | 3.6 | < 1 ×10⁻⁶ cm/s | > 5000 nM | 11.8 | 7 µM (≈ 3.38 µg/mL) | 15.1 min | 326 nM | ≥ 100 | – | –
O=c1c2c([nH]c3ccc(-c4ccc(COc5ccc(OC(F)(F)F)cc5)cc4)cc13)CCSC2 | 129 nM | 3.5 | 3 ×10⁻⁶ cm/s | > 10000 nM | 22 | 12 µM (≈ 5.8 µg/mL) | – | 2840 nM | ≥ 100 | – | –
O=c1c2c([nH]c3ccc(-c4ccc(COc5ccccc5)cc4)cc13)CCSC2 | 44.5 nM | 2.8 | 7 ×10⁻⁶ cm/s | > 1000 nM | 15.9 | 1 µM (≈ 0.4 µg/mL) | – | 706 nM | ≥ 100 | – | –
O=c1c2c([nH]c3ccc(-c4ccc(OCc5ccccc5)cc4)cc13)CCSC2 | 35.9 nM | 2.8 | < 1 ×10⁻⁶ cm/s | > 1000 nM | 10.3 | 1 µM (≈ 0.4 µg/mL) | – | 370 nM | ≥ 100 | – | –
O=c1c2c([nH]c3ccc(-c4ccc(C(F)(F)F)cc4)cc13)CCSC2 | 101 nM | 2.4 | < 1 ×10⁻⁶ cm/s | > 10000 nM | 2.9 | 10 µM (≈ 3.61 µg/mL) | 11.2 min | 293 nM | ≥ 100 | – | –
O=c1c2c([nH]c3ccc(-c4ccc(C(F)(F)F)cc4)cc13)CCCC2 | 58.2 nM | 3.6 | 36 ×10⁻⁶ cm/s | > 2000 nM | 0.77 | 2 µM (≈ 0.687 µg/mL) | – | 44.9 nM | ≥ 100 | Stable | –
O=c1c2c([nH]c3cc(-c4ccc(C(F)(F)F)cc4)ccc13)CCCC2 | 34.9 nM | 2.45 | 250 ×10⁻⁶ cm/s | > 2000 nM | 0.24 | 3 µM (≈ 1.03 µg/mL) | – | 8.7 nM | ≥ 100 | Stable | –
O=c1c2c([nH]c3cc(-c4c(F)cccc4F)ccc13)CCCC2 | 72.3 nM | 3 | 339 ×10⁻⁶ cm/s | > 100 nM | 0.35 | 0.3 µM (≈ 0.0934 µg/mL) | – | 25.3 nM | ≥ 100 | – | –
CN(C)c1ccc(-c2ccc3c(=O)c4c([nH]c3c2)CCCC4)cc1 | 99.2 nM | 1.3 | 199 ×10⁻⁶ cm/s | > 10000 nM | 1.62 | 11 µM (≈ 3.5 µg/mL) | – | 161 nM | ≥ 100 | – | –
O=c1c2c([nH]c3cc(-c4ccc(Oc5ccc(OC(F)(F)F)cc5)cc4)ccc13)CCCC2 | 12.2 nM | 3.8 | 18 ×10⁻⁶ cm/s | > 100 nM | 0.75 | 0.1 µM (≈ 0.0451 µg/mL) | 173 min | 9.1 nM | ≥ 100 | – | –
COc1ccc2c(=O)c3c([nH]c2c1)CCCC3 | 89.9 nM | 1.9 | 25 ×10⁻⁶ cm/s | > 40000 nM | 1.11 | 82 µM (≈ 18.8 µg/mL) | 6.8 min | 99.9 nM | ≥ 100 | – | –
Cc1cccc2c(=O)c3c([nH]c12)CCCC3 | 2200 nM | 1.9 | 26 ×10⁻⁶ cm/s | > 40000 nM | 0.4 | 47 µM (≈ 10 µg/mL) | 6.4 min | 888 nM | ≥ 100 | – | –
Cc1ccc2c(=O)c3c([nH]c2c1)CCCC3 | 150 nM | 2 | 27 ×10⁻⁶ cm/s | > 40000 nM | 1.01 | 89 µM (≈ 19 µg/mL) | 20.1 min | 152 nM | ≥ 100 | – | –
O=c1c2c([nH]c3cc(F)cc(F)c13)CCCC2 | 16.5 nM | 1.5 | 13 ×10⁻⁶ cm/s | > 2000 nM | 2.72 | 3 µM (≈ 0.706 µg/mL) | 3.6 min | 45 nM | ≥ 100 | – | –
COc1cc2[nH]c3c(c(=O)c2cc1Cl)CCCC3 | 30.6 nM | 2.2 | 85 ×10⁻⁶ cm/s | > 10000 nM | 0.79 | 17 µM (≈ 4.48 µg/mL) | – | 24.1 nM | ≥ 100 | – | –

SMILES | EC50 [1] | logD [2] | Papp [3] | EC50 [4] | Ratio EC50 [5] | solubility [6] | half-life [7] | EC50 [8] | selectivity ratio [9] | Stability [10] | EC50 [11]
COc1cc2[nH]c3c(c(=O)c2cc1Cl)CSCC3 | 26.3 nM | 1 | 101 ×10⁻⁶ cm/s | > 10000 nM | 4.94 | 13 µM (≈ 3.66 µg/mL) | – | 130 nM | ≥ 100 | – | –
COc1cc2[nH]c3c(c(=O)c2cc1Cl)CC(F)(F)CC3 | 76.7 nM | 2.1 | 107 ×10⁻⁶ cm/s | > 10000 nM | 0.07 | 10 µM (≈ 3 µg/mL) | 8.5 min | 5.6 nM | ≥ 100 | – | –
O=c1c2c([nH]c3ccc(Cl)cc13)CCC(F)(F)C2 | 148 nM | 2 | 62 ×10⁻⁶ cm/s | > 2000 nM | 1.52 | 4 µM (≈ 1.08 µg/mL) | 40.8 min | 226 nM | ≥ 100 | – | –
COc1ccc2c(=O)c3c([nH]c2c1)CCC(F)(F)C3 | 343 nM | 1.6 | 39 ×10⁻⁶ cm/s | > 10000 nM | 1.02 | 14 µM (≈ 3.71 µg/mL) | 15.8 min | 351 nM | ≥ 100 | – | –
COc1cc2[nH]c3c(c(=O)c2cc1C)CCCC3 | 34.8 nM | 2 | 50 ×10⁻⁶ cm/s | > 20000 nM | 0.46 | 23 µM (≈ 5.6 µg/mL) | – | 16.2 nM | ≥ 100 | – | –
COc1cc2[nH]c3c(c(=O)c2cc1C)CSCC3 | 113 nM | 0.9 | 68 ×10⁻⁶ cm/s | > 10000 nM | 0.86 | 14 µM (≈ 3.66 µg/mL) | – | 96.9 nM | ≥ 100 | – | –
COc1cc2[nH]c3c(c(=O)c2cc1Cl)C[S+]([O-])CC3 (configuration not stated) | 4710 nM | 1.3 | – | > 40000 nM | – | – | 990 min | 1360 nM | – | – | –
COc1cc2[nH]c3c(c(=O)c2cc1Cl)CS(=O)(=O)CC3 | 4710 nM | 1 | – | > 20000 nM | 1.76 | 24 µM (≈ 7.53 µg/mL) | – | 8410 nM | ≥ 100 | Stable | –
O=c1c2c([nH]c3ccc(-c4ccncc4)cc13)CCSC2 | 6210 nM | 0.8 | 15 ×10⁻⁶ cm/s | > 20000 nM | 0.8 | 45 µM (≈ 13.2 µg/mL) | – | 4990 nM | ≥ 100 | – | –
O=c1c2c([nH]c3ccc(-c4cccnc4)cc13)CCSC2 | 7620 nM | 0.8 | 3 ×10⁻⁶ cm/s | > 20000 nM | 1.11 | 37 µM (≈ 10.9 µg/mL) | – | 8490 nM | ≥ 100 | – | –
O=c1c2c([nH]c3ccc(-c4ccc(F)cc4F)cc13)CCSC2 | 193 nM | 3.6 | 10 ×10⁻⁶ cm/s | > 5000 nM | 0.41 | 7 µM (≈ 2.31 µg/mL) | – | 78.4 nM | ≥ 100 | – | –
Cc1cc(Cl)ccc1-c1ccc2[nH]c3c(c(=O)c2c1)CSCC3 | 34.6 nM | 2.4 | < 1 ×10⁻⁶ cm/s | > 2000 nM | 0.67 | 2 µM (≈ 0.684 µg/mL) | 8.4 min | 23.2 nM | ≥ 100 | – | –
O=c1c2c([nH]c3ccc(-c4ccc(OC(F)(F)F)cc4)cc13)CCSC2 | 95.1 nM | 2.5 | < 1 ×10⁻⁶ cm/s | > 1000 nM | 0.61 | 1 µM (≈ 0.377 µg/mL) | – | 58 nM | ≥ 100 | – | –
O=c1c2c([nH]c3ccc(-c4cccc(Oc5ccc(F)cc5)c4)cc13)CCSC2 | 40.9 nM | 2.8 | 2 ×10⁻⁶ cm/s | > 100 nM | 3.5 | 0.3 µM (≈ 0.121 µg/mL) | – | 143 nM | ≥ 100 | – | –
O=c1c2c([nH]c3ccccc13)CCCC2 | 719 nM | 3 | 10 ×10⁻⁶ cm/s | > 40000 nM | 0.45 | 24 µM (≈ 4.78 µg/mL) | 18.2 min | 325 nM | ≥ 100 | – | –
O=C1CC(c2ccc(C(F)(F)F)cc2)Cc2c1c(=O)c1cc(Cl)ccc1n2O (configuration not stated) [FLOXACRINE] | 478 nM | – | – | – | – | – | – | – | ≥ 100 | – | 270 nM
